According to patent US5846731A, “Peralkylated oligopeptide mixtures” (Torry Pines Institute for Molecular Studies, priority 1993, dated 1998):
Values after ≈ are worked out from the molar mass of the structure shown.

Tested on: Staphylococcus aureus (ATCC 29213)
Assay: Antimicrobial activity against S. aureus (growth inhibition, OD 620 nm)
Type: cell-based
Conditions: for MIC: minimum concentration to inhibit about 100 percent bacterial growth; for IC50: individual permethylated peptides
Protocol: The two types of libraries of positional libraries of Example 5 were also scanned against Staphylococcus aureus a Gram-positive bacterium. Concentrations of those 5× permethylated peptide mixtures that inhibited cellular growth by 50 percent (IC50) values were determined.
The permethylated amino acid and peptides were screened against S. aureus, as described before and IC50 and MIC (minimum inhibitory concentration; minimum concentration needed to inhibit about 100 percent bacterial growth) values were determined.
Staphylococcus aureus (ATCC 29213) were grown overnight (about 18 hours) at 37° C. in Mueller-Hinton (MH) broth. This culture was reinoculated and incubated at 37° C. to reach the exponential phase of bacterial growth; i.e., a final bacterial suspension containing about 10^5 to 5×10^5 colony-forming units (CFU)/ml. The concentration of cells was established by plating 100 μl of different dilutions of the culture solution (e.g., 10^-2, 10^-3 and 10^-4) onto solid agar plates. Following an overnight (about 18 hours) incubation at 37° C., the CFU thus formed were counted on each agar plate.
96-Well tissue culture plates were utilized, with eight wells per plate containing only medium as control blanks, whereas eight other wells contained medium plus cells as a positive growth control. These controls were used to detect possible medium contamination and to provide a measure of uninhibited growth of the microorganisms.
For determination of IC50 values (concentrations necessary to inhibit 50 percent growth of bacteria), peralkylated oligopeptide sets were added to the bacterial suspension at concentrations noted before. The plates were incubated overnight (about 18 hours) at 37° C., and the optical density (OD) determined at 620 nm after different times of incubation. IC50 Values were then determined from the OD data.

[1] = Staphylococcus aureus, ATCC29213, Assay 1
[2] = Staphylococcus aureus, ATCC29213, Assay 2

Row | Compound | MIC (Assay 2) [µM] | IC50 [1] [nM] | IC50 [2] [nM] | MIC [1] [µM] | MIC (Assay 1) [µM] | IC50 (Assay 1) [nM] | IC50 (Assay 2) [nM]
1 | CC[C@H]1OC(=O)[C@H](C)[C@@H](O[C@H]2C[C@@](C)(OC)[C@@H](O)[C@H](C)O2)[C@H](C)[C@@H](O[C@@H]2O[C@H](C)C[C@H](N(C)C)[C@H]2O)[C@](C)(O)C[C@@H](C)C(=O)[C@H](C)[C@@H](O)[C@]1(C)O [Erythromycin, erythromycin] | 0.5 (≈ 0.367 µg/mL) | 184 | 134 | 0.5 (≈ 0.367 µg/mL) |  |  | 
2 | Cc1onc(-c2ccccc2)c1C(=O)N[C@@H]1C(=O)N2[C@@H]1SC(C)(C)[C@@H]2C(=O)O [Oxacillin, oxacillin] | 0.125 (≈ 0.0502 µg/mL) | 42 | 370 | 0.125 (≈ 0.0502 µg/mL) |  |  | 
3 | CNC(=O)[C@H](Cc1ccccc1)[N+](C)(C)C [PerA--F, permethylated Phe N-methylamide] | > 500 |  |  |  | > 500 |  | 
4 | Ac-FFFFFF-NH2 [N--Ac--hexaPhe, N-acetyl hexaPhe amide] | > 500 |  |  |  | > 500 | > 500000 | > 500000
